From patent US4758579A, “Fluoroalkoxy substituted benzimidazoles useful as gastric acid secretion inhibitors” (BYK Gulden Lomberg Chemische Fabrik GmbH, priority 1984, dated 1988) come the findings set out here.

Molecules are shown by their SMILES.

Test [1] has as its system formation of gastric lesions. Put plainly: Antiulcerogenic action in Shay rats: protective action on the stomach (lesion index after pylorus ligature and oral acetylsalicylic acid). Type of test: in vivo. The following applies: rat, p.o., pylorus ligature (4 hours; Shay rat) + 100 mg/kg acetylsalicylic acid, dose reducing lesion index by 50% vs control, read-out: Protective action on the stomach (rat) inhibition of the lesion index ED50. How it is done: (§1) The compounds according to the invention investigated appear in the following table:
(§2) The influence of the compounds investigated on the formation of gastric lesions triggered by pylorus ligature (4 hours; Shay rat) and oral administration of 100 mg/kg of acetylsalicylic acid on the inhibition of gastric secretion (HCl) in rats during 4 hours is shown in the following table:
(§3) The antiulcerogenic action was tested in Shay rats:
(§4) Ulcers were provoked in rats which had fasted for 24 hours (female, 180-200 g, 4 animals per cage on a high grid) by pylorus ligature (under diethyl ether anesthesia) and oral administration of 100 mg/10 ml/kg of acetylsalicylic acid. The substances to be tested are administered orally (10 ml/kg) one hour before the pylorus ligature. The wound is closed by means of Michel clamps. 4 hours thereafter, the animals are sacrificed under ether anesthesia by atlas dislocation and the stomach is resected. The stomach is opened longitudinally and fixed to a cork plate, after first determining the amount of secreted gastric juice (volume) and later its HCl content (titration with sodium hydroxide solution). The number and size (=diameter) of ulcers present are determined with a stereomicroscope with 10-fold magnification. The product of the degree of severity (according to the following points scale) and number of ulcers serves as the individual lesion index.
ulcer diameter 0.1-1.4 mm
(§5) The reduction in the average lesion index of each treated group compared with that of the control group (=100%) serves as a measure of the antiulcerogenic effect.

In test [2] the test system is HCl secretion in the stomach. Description: Inhibition of gastric secretion (HCl) in the stomach of the Shay rat over 4 hours. Type of test: in vivo. To be noted: total of 4 hours; for ED25 / ED50: po; for ED25: dose reducing HCl secretion by 25% vs control; for ED50: dose reducing HCl secretion by 50% vs control; for % inhibition of HCl secretion: after administration of the antiulcerous ED50. How it is done: as §1, §2
ED25+ and ED50+ = dose which reduces the lesion index and the HCL
secretion (over 4 hours) in the rat stomach by 25% and 50% in the treated
group in comparison with the control group.
(++) = after administration of the antiulcerous ED50
as §3, §4, §5

`COc1cnc(C[S+]([O-])c2nc3cc(OC(F)(F)F)ccc3[nH]2)cc1OC` (centres unmarked) [Serial No. 1, 2-[(4,5-Dimethoxy-2-pyridyl)methylsulfinyl]-5-trifluoromethoxy-1H-benzimidazole]: the ED50 in test [1] is 0.6 mg/kg. For the same compound, in test [2], the ED25 came to 1 mg/kg, the ED50 was ~3 mg/kg and the “% inhibition of HCl secretion” value is 15%.
With `COc1cnc(C[S+]([O-])c2nc3cc(OC(F)(F)F)ccc3[nH]2)c(C)c1OC` (centres unmarked) [Serial No. 2, 2-[(4,5-Dimethoxy-3-methyl-2-pyridyl)methylsulfinyl]-5-trifluoromethoxy-1H-benzimidazole], the ED50 in test [1] is 0.8 mg/kg. For the same compound, in test [2], the ED25 was found to be 0.7 mg/kg, the 50% effect level (ED50) was put at a dose of 1.7 mg/kg and the “% inhibition of HCl secretion” value came out at 25%.
In the case of `COc1cnc(C[S+]([O-])c2nc3cc(OC(F)(F)C(F)F)ccc3[nH]2)cc1OC` (centres unmarked) [Serial No. 3, 2-[(4,5-dimethoxy-2-pyridyl)methylsulfinyl]-5-(1,1,2,2-tetrafluoroethoxy)-1H-benzimidazole], the ED50 in test [1] came to 0.6 mg/kg. In test [2], the ED25 was ~1 mg/kg, the ED50 came to 3.4 mg/kg and the “% inhibition of HCl secretion” value was found to be 18%.
As to `COc1cnc(CSc2nc3cc4c(cc3[nH]2)OC(F)(F)O4)cc1OC` [Serial No. 4, 2,2-difluoro-6-[(4,5-dimethoxy-2-pyridyl)methylthio]-5H-[1,3]-dioxolo[4,5-f]benzimidazole], the ED50 in test [1] is 3.5 mg/kg. Besides, in test [2], the ED25 is 3 mg/kg, the ED50 stood at 6.5 mg/kg and the “% inhibition of HCl secretion” value worked out at 28%.
For `COc1cnc(C[S+]([O-])c2nc3cc4c(cc3[nH]2)OC(F)(F)O4)cc1OC` (centres unmarked) [Serial No. 5, 2,2-Difluoro-6-[(4,5-dimethoxy-2-pyridyl)methylsulfinyl]-5H-[1,3]-dioxolo[4,5-f]benzimidazole] the same measures were ~1 mg/kg, 1 mg/kg, 3 mg/kg and 25%.

By ED50 is commonly meant the midpoint of the dose-response relation.
